Patent US20040087558A1, “Methods of using and compositions comprising selective cytokine inhibitory drugs for treatment, modification and management of pain” (priority 2002, published 2004)

Legend:
[1] = 8 to 10 mg/kg i.p.; acute pain assays; cited from earlier work
[2] = Clinical study in pain patients with upper extremity CRPS; assay type: in vivo, human; details: 1,200 mg as a continuous oral daily dose
Protocol: Selective cytokine inhibitory drugs of the invention such as 3-(3,4-dimethoxy-phenyl)-3-(1-oxo-1,3-dihydro-isoindol-2-yl)-propionamide are administered in an amount of 400 to 1,200 mg per day to patients with pain syndromes for three to six months. A baseline evaluation is performed for the effect of the drug treatment on pain intensity, impact of pain on activities of daily living, and consumption of other pain medications.
In a specific embodiment, clinical studies are performed in pain patients who have upper extremity CRPS that has not responded to conventional physical therapy and has been present for at least one year. In the early course of their diseases, patients have clear evidence of autonomic dysfunction with formal autonomic testing (Quantitative sudomotor axon reflex test (QSART), resting sweat output, and thermography). If this is unavailable, documentation of clinical signs indicates autonomic dysfunction (changes in hydration, temperature, skin, nail or hair growth) along with symptoms of allodynia and swelling. […] Responses are assessed using standard pain scales, e.g., Numeric Pain Scale Assessment (VAS) for pain, quality of life using the McGill Index and objective signs in clinical examination such as a visible reduction of swelling, sweating, discolorations in skin color, temperature changes, changes in skin, hair and nail growth, and fine motor movements. […]

[3] = Cardiovascular and respiratory function in anesthetized dogs; assay type: in vivo; details: anesthetized Beagle dogs; ascending doses 400, 800 and 1,200 mg/kg/day by infusion through the jugular vein
Protocol: The effects of 3-(3,4-dimethoxy-phenyl)-3-(1-oxo-1,3-dihydro-isoindol-2-yl)-propionamide on cardiovascular and respiratory function are investigated in anesthetized dogs. Two groups of Beagle dogs (2/sex/group) are used. One group receives three doses of vehicle only and the other receives three ascending doses of 3-(3,4-dimethoxy-phenyl)-3-(1-oxo-1,3-dihydro-isoindol-2-yl)-propionamide (400, 800, and 1,200 mg/kg/day). In all cases, doses of 3-(3,4-dimethoxy-phenyl)-3-(1-oxo-1,3-dihydro-isoindol-2-yl)-propionamide or vehicle are successively administered via infusion through the jugular vein separated by intervals of at least 30 minutes.

TNF-α production = experiment: Inhibition of TNF-α production following LPS-stimulation of human PBMC and human whole blood; assay type: cell-based; details: in vitro studies; compared with thalidomide
Protocol: In a specific embodiment, the pharmacological properties of 3-(3,4-dimethoxy-phenyl)-3-(1-oxo-1,3-dihydro-isoindol-2-yl)-propionamide are characterized in in vitro studies. Studies examine the effects of the compound on the production of various cytokines. Inhibition of TNF-α production following LPS-stimulation of human PBMC and human whole blood by the compound is investigated in vitro. The IC50's of the compound for inhibiting production of TNF-α are measured. […] The pharmacological effects of 3-(3,4-dimethoxy-phenyl)-3-(1-oxo-1,3-dihydro-isoindol-2-yl)-propionamide may derive from its action as an inhibitor of the generation of inflammatory cytokines.

Row | SMILES | anti-nociceptive response [1] | tolerability [2] | cardiovascular and respiratory changes compared to the vehicle control group [3] | pharmacological activity profile, potency relative to thalidomide (TNF-α production)
1 | CN1CC[C@]23c4c5ccc(O)c4O[C@H]2[C@@H](O)C=C[C@H]3[C@H]1C5 [morphine] | near-maximal anti-nociceptive response | – | – | –
2 | COc1ccc(C(CC(N)=O)N2Cc3ccccc3C2=O)cc1OC (stereo not shown) [3-(3,4-dimethoxy-phenyl)-3-(1-oxo-1,3-dihydro-isoindol-2-yl)-propionamide] | – | well-tolerated | minimal at all doses | five to fifty
